The values that follow come from patent publication US20080279868A1, “Antibody-Drug Conjugates and Methods of Use” (priority 2005, published 2008).

The data set in a line: Rate of cyclization of 6-membered hydrazine linker in buffer. It counts as physicochemical. Particulars: for rate of cyclization of the hydrazine linker: buffer at pH 7.4. As for the experimental part:
A duocarmycin analog conjugated to a dimethyl 6-membered hydrazine linker was incubated in buffer at pH 7.4 for 24 hours and the generation of cyclized product resulting from cyclization of the hydrazine linker, thereby releasing free duocarmycin analog, was assessed over time.
A duocarmycin analog conjugated to a gem-dimethyl 6-membered hydrazine linker was incubated in buffer at pH 7.4 and the generation of cyclized product resulting from cyclization of the hydrazine linker, thereby releasing free duocarmycin analog, was assessed over time.

For `COC(=O)c1c(C)[nH]c2c(OC(=O)N(C)C(C)(C)C(=O)N(C)N)cc3c(c12)[C@H](CCl)CN3C(=O)c1cc2cc(OC)ccc2o1`, the “rate of cyclization of the hydrazine linker” value is given as “proceeding to completion within a few minutes”. Turning to `COC(=O)c1c(C)[nH]c2c(OC(=O)N(C)CC(=O)N(C)N)cc3c(c12)[C@H](CCl)CN3C(=O)c1cc2cc(OC)ccc2o1`, the “rate of cyclization of the hydrazine linker” value was “relatively slow rate of cyclization”. In addition, the “generation of cyclized product resulting from cyclization of the hydrazine linker” value (buffer at pH 7.4, over 24 hours) is recorded as “Minimal amounts of cyclized product”.
